Test: Distribution of radioactivity in tissues of female rats after intravenous administration
Type: in vivo
Settings: for Distribution of radioactivity in brain / Distribution of radioactivity in thyroid: no unit in table; for Distribution of radioactivity in brain: b28 gives percent dose/g; for Distribution of radioactivity in thyroid: percent
Experimental: The distribution of radioactivity in tissues of female rats at 5 minutes, 15 minutes, 30 minutes and 60 minutes after intravenous administration of the iodinated compound is shown in the following table. The level of accumulation of radioactivity in the brain after injection of this agent was a significant 1.65 percent dose/g at 5 minutes but the blood levels were also high resulting in blood ratios of 1.6/1 at 5 minutes.

[1] = 1 h (head printed 1 HT/R), intravenous

SMILES: CO[C@@H]1O[C@H](COC(C)=O)[C@@H](OC(C)=O)[C@@H](OC(C)=O)[C@@H]1/C=C/[125I] [methyl-2-deoxy-2-(E)-[^125 I]-iodovinyl-2,4,6-O-triacetyl-β-D-altropyranoside]
- Distribution of radioactivity in brain (5 min, intravenous): 1.6525
- Distribution of radioactivity in thyroid (5 min, intravenous): 20.6441
- blood levels (5 minutes, intravenous, in words): high
- Distribution of radioactivity in thyroid (15 min, intravenous): 18.9149
- Distribution of radioactivity in thyroid (30 min, intravenous): 25.7085
- Distribution of radioactivity in brain [1]: 0.7237
- Distribution of radioactivity in thyroid [1]: 33.4920
- brain retention compared with the peak uptake at 5 minutes (60 minutes vs 5 minutes, intravenous): 50%
- accumulation of activity in the thyroid (60 minutes, intravenous): 33.5%
- stability to in vivo deiodination (from thyroid accumulation at 60 minutes, in words): demonstrated the stability of this agent to in vivo deiodination
- retention in the brain (in words) (up to 60 minutes, intravenous): prolonged retention in the brain

From patent US4826966A, “Radioiodinated branched carbohydrates” (The United States of America as represented by the United …, priority 1988, dated 1989)
